These results are taken from patent US20240109890A1, “BRIDGED HETEROCYCLYL-SUBSTITUTED PYRIMIDINE COMPOUNDS, PREPARATION METHOD AND MEDICAL USE THEREOF” (THE NATIONAL INSTITUTES OF PHARMACEUTICAL R&D CO., LTD., priority 2021, published 2024).

A word on the IC50: it is the concentration at which inhibition is half-maximal. A high value points to a need for much substance. For orientation: AUC(0-t) means the area under the concentration-time curve up to a stated or last time point. A higher AUC(0-t) goes with high exposure. By Cmax is commonly meant the maximum level reached in the sampled fluid or tissue. The term half-life denotes the time needed for the level to fall by half in the phase considered. A high value points to slow decline.

Each structure is given as a SMILES string.

For one data set, the target named is JAK1 kinase (Homo sapiens (Human), UniProt P23458). Put plainly: In vitro inhibitory activity on JAK1 kinase (ADP-Glo Kinase Assay). In kind it is biochemical. To be noted: JAK1 4 nM, 1 mM ATP, IRS1 substrate. On the procedure: Experimental materials: JAK1 kinase (Invitrogen, PV4744), ATP (Promega, V915B), ADP-Glo Kinase Assay (Promega, V9101), IRS1 (Signalchem, 140-58-1000). Sample preparation: The compounds of the present invention and the control product were dissolved in DMSO solvent respectively to formulate into 10 mM mother liquor. The final reaction maximum concentration of the compound was 10 μM, 3-fold dilution, 10 concentration gradients, and duplicate wells for each concentration gradient. Experimental process: 0.1 μL of the compound to be tested was transferred into a 384-well reaction plate (PE, 6007290) via Echo and centrifuged at 1000 rpm/min for 1 min. 5 μL of JAK1 kinase (final concentration of 4 nM) was transferred into the 384-well reaction plate, which was then centrifuged at 1000 rpm/min for 1 min, and incubated at 25° C. for 15 min. 5 μL of substrate mixture (1 mM ATP, IRS1 0.05 mg/ml, kinase buffer solution) was transferred into the 384-well reaction plate, which was then centrifuged at 1000 rpm/min for 1 min, and incubated at 25° C. for 60 min. 10 μL of ADP-Glo was transferred into the 384-well reaction plate, which was then centrifuged at 1000 rpm/min for 1 min, and incubated at 25° C. for 40 min. 20 μL of test solution was transferred into the 384-well reaction plate, which was then centrifuged at 1000 rpm/min for 1 min and incubated at 25° C. for 40 min. RLU (Relative luminescence unit) signal was read by using an Envision multifunctional plate reader. The signal intensity was used to characterize the degree of the kinase activity. […] IC50 value of 0-100 nM is shown as A, IC50 value of 100-300 nM is shown as B, IC50 value of 300-1000 nM is shown as C, and IC50 value which is greater than 1000 nM is shown as D. NT means not tested.

A further data set has as its system AIA model. In words: AIA pharmacodynamic study in rats (complete Freund's adjuvant, arthritis scoring). In kind it is in vivo, rat. To be noted: female Lewis rats, arthritis score; for efficacy in the AIA model versus reference PF-06700841: low dose 1 mg/kg and high dose 3 mg/kg groups. The method, then:
Experimental materials: Complete Freund's adjuvant (Chondrex, 7027); positive control compound PF-06700841, which has a structure of
Experimental process: The in vivo efficacy of the compounds of the present invention was investigated. 8-Week-old female Lewis rats (Beijing Vital River Laboratory Animal Technology Co., Ltd.) were subcutaneously injected with 0.1 mL of complete Freund's adjuvant at a single site on the base of their tails, and grouped 13 days after modeling. 8 groups were divided: the normal group, the model group, the PF-06700841 low dose group, the PF-06700841 high dose group, the compound 1-a low dose group, the compound 1-a high dose group, the compound 1-b low dose group, and the compound 1-b high dose group (the compounds to be tested were formulated into 0.1 mg/mL and 0.3 mg/mL solutions with 20% cyclodextrin solution). 20% cyclodextrin was administered to the model group, 1 mg/kg of the test compound was administered to the low dose group, and 3 mg/kg of the test compound was administered to the high dose group. The scores were evaluated every 2 days after administration. Scoring criteria: 0 point: no redness and swelling; 1 point: mild redness and swelling of ankle joints and wrist joints; 2 points: moderate redness and swelling of ankle joints and wrist joints; 3 points: severe redness and swelling of the paw including the fingertips; 4 points: maximal inflammation of the extremities, including multiple joints. The scoring results were analyzed by Graph prism9.0 software.
FIG. 1 is a graph showing the rat AIA pharmacodynamic scoring results of the compounds of the present invention.

Data set [1] concerns IFN-2α-stimulated TYK2/JAK1-mediated pathway. Put plainly: Inhibition of STAT3 signaling pathway of human whole blood (IFN-2α induced pSTAT3, flow cytometry). It counts as cell-based. To be noted: IFN-2α stimulation, CD3/pSTAT3 staining. The method, then:
Sample preparation: The compounds of the present invention and the control were dissolved in DMSO solvent respectively to formulate into 10 mM mother liquor. The final reaction maximum concentration of the compound was 10 μM, 3-fold dilution, 10 concentration gradients, and duplicate wells for each concentration gradient.
Experimental process: 20 μL of the compound of the present invention was added to a flow cytometer tube (BD, 352052) containing 180 μL of anticoagulant sodium heparin. 20 μL of PBS was added to the control tube. The sample was incubated at 37° C. for 30 min. 2 μL of stimulating factor was added and then incubated at 37° C. for 20 min. 1 mL of erythrocyte lysate was added, and the sample was repeatedly inverted 5 to 10 times or vortexed and then incubated at 37° C. for 10 min. The sample was centrifuged at 600 g for 6 to 8 min. The supernatant was discarded. The mixture was vortexed until the precipitate was suspended. The cells were washed with 3 mL of PBS and centrifuged at 600 g for 6 to 8 min. The supernatant was discarded. The mixture was vortexed until the precipitate was suspended. 1 mL of membrane breaking solution was added, and the system was mixed gently, incubated on ice for 30 min, and centrifuged at 600 g for 6 to 8 min. The supernatant was discarded. The mixture was vortexed until the precipitate was suspended. The cells were washed. 3 mL of PBS was added. […]
A general note: In flow cytometry, cells or beads pass a laser one at a time.

Data set [2] in a line: Pharmacokinetic study in rats. In kind it is in vivo, rat. To be noted: for F / AUC(0-t) / Cmax / half-life: male SD rats, i.v. 1 mg/kg, p.o. 5 mg/kg; for AUC(0-t) / Cmax / half-life: rat, plasma, route of this value not stated; for pharmacokinetic properties (overall statement): rats. The method, then:
Sample preparation: The compounds of Examples 1-a and 1-b were formulated into 0.2 mg/mL and 0.5 mg/mL solutions with 20% cyclodextrin.
Experimental method: Male SD rats (Beijing Vital River Laboratory Animal Technology Co., Ltd.) were used, the intravenous dose was 1 mg/kg (intravenously, i.v). Blood was collected from the canthus venous plexus before administration and at 0, 5 minutes, 15 minutes, 30 minutes, 1 hour, 2 hours, 4 hours, 6 hours and 8 hours after administration. The oral dose was 5 mg/kg (oral, p.o). Blood was collected from the canthus venous plexus before administration and at 15 minutes, 30 minutes, 1 hour, 2 hours, 4 hours, 6 hours and 8 hours after administration. The blood was anticoagulated with sodium heparin, centrifuged at 3500 rpm for 10 minutes at 4° C. The plasma was obtained and stored at −20° C. until testing.
50 μL of the plasma sample melted at room temperature was precisely measured and placed in a 1.5 mL EP tube, followed by adding 400 μL of verapamil internal standard working solution (China National Institute for Drug Control). The EP tube was vortexed vigorously for 1 minute, and centrifuged at 16000 rpm for 10 minutes. The supernatant was collected, filtered with a 0.22 μm organic membrane (AS081320-T, Agela Technologies), and added to an injection vial. The plasma concentration was obtained by LC/MS (Waters UPLC I Class/ TQ-S micro). The main pharmacokinetic parameters of compounds 1-a and 1-b in rats were obtained by DAS3.3.0 software.

Sequence of JAK1 kinase (P23458 whole entry): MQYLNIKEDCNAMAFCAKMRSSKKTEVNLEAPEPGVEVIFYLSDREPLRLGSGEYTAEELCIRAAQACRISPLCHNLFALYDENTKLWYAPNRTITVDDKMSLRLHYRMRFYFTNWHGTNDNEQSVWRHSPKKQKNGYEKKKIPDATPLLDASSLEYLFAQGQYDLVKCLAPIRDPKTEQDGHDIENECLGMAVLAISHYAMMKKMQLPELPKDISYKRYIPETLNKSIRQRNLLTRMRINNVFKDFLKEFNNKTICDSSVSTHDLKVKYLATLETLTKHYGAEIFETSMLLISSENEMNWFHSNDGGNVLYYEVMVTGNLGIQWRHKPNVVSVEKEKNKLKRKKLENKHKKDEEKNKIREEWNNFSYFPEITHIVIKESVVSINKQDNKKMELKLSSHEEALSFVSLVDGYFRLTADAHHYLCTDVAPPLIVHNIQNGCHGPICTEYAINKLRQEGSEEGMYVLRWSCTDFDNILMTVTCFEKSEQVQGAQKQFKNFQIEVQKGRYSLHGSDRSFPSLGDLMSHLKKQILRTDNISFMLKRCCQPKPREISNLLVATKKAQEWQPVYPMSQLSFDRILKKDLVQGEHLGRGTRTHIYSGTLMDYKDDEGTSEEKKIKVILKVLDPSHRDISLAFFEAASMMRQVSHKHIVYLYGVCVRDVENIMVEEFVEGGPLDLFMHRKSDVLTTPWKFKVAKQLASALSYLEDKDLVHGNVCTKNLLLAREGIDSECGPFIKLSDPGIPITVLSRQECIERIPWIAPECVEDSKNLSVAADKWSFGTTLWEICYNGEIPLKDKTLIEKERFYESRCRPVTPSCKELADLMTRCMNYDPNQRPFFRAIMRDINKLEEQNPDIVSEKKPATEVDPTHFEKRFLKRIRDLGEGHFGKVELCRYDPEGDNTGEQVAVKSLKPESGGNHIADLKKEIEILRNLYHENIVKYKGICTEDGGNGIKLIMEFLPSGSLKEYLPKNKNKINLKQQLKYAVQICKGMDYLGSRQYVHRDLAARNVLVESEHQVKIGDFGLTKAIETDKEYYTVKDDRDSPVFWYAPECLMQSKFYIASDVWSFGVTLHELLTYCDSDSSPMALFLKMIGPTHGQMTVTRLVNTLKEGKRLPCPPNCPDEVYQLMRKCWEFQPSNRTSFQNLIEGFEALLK

As to `Cn1cc(Nc2nccc(C3=CC4CCC(C3)N4C(=O)[C@@H]3C[C@H]3F)n2)cn1` (stereo partly drawn) [Compound 1, ((1S,2R)-2-fluorocyclopropyl)(3-(2-((1-methyl-1H-pyrazol-4-yl)amino)pyrimidin-4-yl)-8-azabicyclo[3.2.1]oct-2-en-8-yl)methanone], the IC50 on JAK1 kinase is < 100 nM.

As to `Cn1cc(Nc2nccc(C3=C[C@@H]4CC[C@H](C3)N4C(=O)[C@@H]3C[C@H]3F)n2)cn1` [Compound 1-a, ((1S,2R)-2-fluorocyclopropyl)((1S,5R)-3-(2-((1-methyl-1H-pyrazol-4-yl)amino)pyrimidin-4-yl)-8-azabicyclo[3.2.1]oct-2en-8-yl)methanone], the “efficacy in the AIA model versus isomer 1-b” value in the data set on AIA model (1 mg/kg and 3 mg/kg) is given as “significantly better than that of isomer 1-b”. The “efficacy in the AIA model versus reference PF-06700841” value in the data set on AIA model is “significantly better than that of the reference PF-06700841”. For the same compound, the IC50 at JAK1 kinase was < 100 nM. Besides, the IC50 in data set [1] was < 100 nM. Moreover, in data set [2], the F result is reported as “A (F>50% is shown as A)”, the AUC(0-t) is > 1000 ng·h/mL, the Cmax is > 500 ng/mL and the half-life is > 1 h. Also, in data set [2], the “pharmacokinetic properties (overall statement)” value is “good pharmacokinetic properties”.

For `Cn1cc(Nc2nccc(C3=C[C@H]4CC[C@@H](C3)N4C(=O)[C@@H]3C[C@H]3F)n2)cn1` [Compound 1-b, ((1S,2R)-2-fluorocyclopropyl)((1R,5S)-3-(2-((1-methyl-1H-pyrazol-4-yl)amino)pyrimidin-4-yl)-8-azabicyclo[3.2.1]oct-2-en-8-yl)methanone], in the data set on AIA model, the “efficacy in the AIA model versus reference PF-06700841” value was “significantly better than that of the reference PF-06700841”. In addition, on JAK1 kinase, the IC50 was < 100 nM. In addition, the IC50 in data set [1] is < 100 nM. Also, in data set [2], the F entry was “A (F>50% is shown as A)”, the AUC(0-t) is 500 to 1000 ng·h/mL, the Cmax is 300 to 500 ng/mL and the half-life is > 1 h. Moreover, the “pharmacokinetic properties (overall statement)” value in data set [2] was “good pharmacokinetic properties”.

On JAK1 kinase, `Cn1cc(Nc2nccc(C3=CC4CCC(C3)N4C(=O)[C@H]3C[C@@H]3F)n2)cn1` (stereo partly drawn) [Compound 2, ((1R,2S)-2-fluorocyclopropyl)(3-(2-((1-methyl-1H-pyrazol-4-yl)amino)pyrimidin-4-yl)-8-azabicyclo[3.2.1]oct-2-en-8-yl)methanone] displayed an IC50 of 300 to 1000 nM.

At JAK1 kinase, `Cn1cc(Nc2nccc(C3=C[C@@H]4CC[C@H](C3)N4C(=O)[C@H]3C[C@@H]3F)n2)cn1` [Compound 2-a, ((1R,2S)-2-fluorocyclopropyl)((1S,5R)-3-(2-((1-methyl-1H-pyrazol-4-yl)amino)pyrimidin-4-yl)-8-azabicyclo[3.2.1]oct-2-en-8-yl)methanone] displayed an IC50 of 300 to 1000 nM.

Regarding `Cn1cc(Nc2nccc(C3=C[C@H]4CC[C@@H](C3)N4C(=O)[C@H]3C[C@@H]3F)n2)cn1` [Compound 2-b, ((1R,2S)-2-fluorocyclopropyl)((1R,5S)-3-(2-((1-methyl-1H-pyrazol-4-yl)amino)pyrimidin-4-yl)-8-azabicyclo[3.2.1]oct-2-en-8-yl)methanone], the IC50 against JAK1 kinase is 100 to 300 nM.
